# Measured values published in US9511143B2, “Aqueous compositions comprising arbekacin” (Meiji Seika Pharma Co., Ltd., priority 2011, dated 2016).
# Columns and labels:
# [1] = test system: P. aeruginosa MSC17707; assay: Experimental pneumonia caused by Pseudomonas aeruginosa in neutropenic mice, inhalation therapy; format: in vivo; conditions: for viable cell counts in the lung in comparison to the non-treatment control group: all the dose levels; for Number of intrapulmonary viable cells: 5 min inhalation 2 h after infection, count 20 h after infection, neutropenic mice, mean ± SD
# Description: The therapeutic effect of arbekacin inhalation on experimental pneumonia in neutropenic mice, caused by P. aeruginosa, was compared with the therapeutic effect of amikacin and tobramycin.
# Cyclophosphamide (Sigma-Aldrich Co.) was dissolved in physiological saline. Four to five week-old Crlj:CD1(ICR) male mice were immunosuppressed by intraperitoneal injection of 150 and 100 mg/kg of cyclophosphamide solution 4 days and 1 day before infection, respectively. Thereafter, pulmonary infection was induced by intranasal inoculation of amikacin- and tobramycin-resistant P. aeruginosa having the aac(6)-lae encoding an aminoglycoside modifying enzyme. The antibiotics dissolved in saline were administered to each mouse using an electronic vibrating membrane nebulizer (eFlow®, PARI Pharma GmbH, spray flow rate: approximately 0.5 ml/min) two hours after the infection, and viable cells per lung were counted 20 hours after the infection. As for the doses of arbekacin, three levels were set at 3, 10 and 30 mg/ml, and the respective doses of amikacin and tobramycin were at three levels of 10, 30, and 100 mg/ml. The inhalation duration was five minutes. Meanwhile, physiological saline was administered to a non-treatment control group.
# [2] = test system: guinea pigs; design: species or system guinea pig (male Hartley strain); conditions: guinea pig, in vivo
# Description: A guinea-pig cough induction model was used to investigate differences in cough induction between the sulfate and hydrochloride forms of arbekacin. The tested substances were commercially available arbekacin sulfate (ABK—H2SO4) and arbekacin hydrochloride (ABK—HCl) that was prepared from arbekacin free base according to the method described in Example 2. The concentration of dosing solutions was set to be 25 mg/ml. In addition, physiological saline was used as a negative control agent whereas citric acid (30 mg/ml) was used as a positive control agent.
# Male Hartley strain guinea pigs were subjected to the experiment, with 10 animals per group. […] Cough was detected on the basis of the following indicators: observation of symptoms, analysis of a respiration pattern in the soma-side by a double-flow plethysmograph method using a multi-functional respiration measuring device (Win Pulmos-I, M-I-P-S Corporation), and pressure changes in head-side and soma-side chambers measured by a pressure transducer (blood pressure monitoring kit, Japan Becton, Dickinson and Company). The case, in which a motion of coughing in the symptom observation was noted together with typical changes in the pressure in the head-side and soma-side chambers and in the respiration pattern of the soma side at the time of coughing, was determined to be a cough reflex. […] Then, the occurrence of cough reflex was counted. […]
Structure (SMILES),viable cell counts in the lung in comparison to the non-treatment control group [1],Number of intrapulmonary viable cells ([1]; level of drug 10 mg/ml) [log10 CFU/lung],Number of intrapulmonary viable cells ([1]; level of drug 30 mg/ml) [log10 CFU/lung],Number of intrapulmonary viable cells ([1]; level of drug 100 mg/ml) [log10 CFU/lung],Number of intrapulmonary viable cells ([1]; level of drug 3 mg/ml) [log10 CFU/lung],therapeutic effect compared to amikacin and tobramycin ([1]; same dosage (10 or 30 mg/ml)),"number of occurrence of cough reflex / cough induction, comparison between groups [2]"
"NCC[C@H](O)C(=O)N[C@@H]1C[C@H](N)[C@@H](O[C@H]2O[C@H](CN)[C@@H](O)[C@H](O)[C@H]2O)[C@H](O)[C@H]1O[C@H]1O[C@H](CO)[C@@H](O)[C@H](N)[C@H]1O [Amikacin, amikacin]",significantly decreased,5.65 ± 1.55,4.46 ± 1.68,2.65 ± 1.74,,,
"NCC[C@H](O)C(=O)N[C@@H]1C[C@H](N)[C@@H](O[C@H]2O[C@H](CN)CC[C@H]2N)[C@H](O)[C@H]1O[C@H]1O[C@H](CO)[C@@H](O)[C@H](N)[C@H]1O [Arbekacin, arbekacin]",significantly decreased,2.20 ± 0.99,1.98 ± 0.83,,4.07 ± 2.18,significantly superior,
"O=C(O)CC(O)(CC(=O)O)C(=O)O [Citric Acid, citric acid]",,,,,,,significantly higher
"NC[C@H]1O[C@H](O[C@H]2[C@H](O)[C@@H](O[C@H]3O[C@H](CO)[C@@H](O)[C@H](N)[C@H]3O)[C@H](N)C[C@@H]2N)[C@H](N)C[C@@H]1O [Tobramycin, tobramycin]",significantly decreased,5.74 ± 1.57,3.48 ± 1.85,3.53 ± 1.88,,,
